Read-outs that look alike come from different tables or passages of the source.
Key:
MCL-1ΔNΔC [1] = assay: High-throughput competitive FP binding screen, FITC-MCL-1 SAHB/MCL-1ΔNΔC interaction
BCL-XLΔC = BCL-XLΔC (Homo sapiens, UniProt Q07817); assay: High-throughput competitive FP binding screen, FITC-BAD BH3/BCL-XLΔC interaction
MCL-1ΔNΔC [2] = biological target: MCL-1ΔNΔC (Homo sapiens, UniProt Q07820); assay: High-throughput competitive FP binding screen, FITC-MCL-1 SAHB/MCL-1ΔNΔC interaction; parameters: the C-terminal alpha-helix was deleted from each of these constructs; GST (N, cleaved yes); made in house
Chain of MCL-1ΔNΔC (Homo sapiens, UniProt Q07820) (Q07820 172-320 limits assumed, stated change not applied): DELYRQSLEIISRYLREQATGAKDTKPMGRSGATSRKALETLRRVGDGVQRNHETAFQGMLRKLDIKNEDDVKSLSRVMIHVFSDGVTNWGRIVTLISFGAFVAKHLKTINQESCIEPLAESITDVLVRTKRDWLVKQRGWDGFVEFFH

[3] = selectivity for MCL-1ΔNΔC over BCL-XLΔC targeting (BCL-XL % Bound minus MCL-1 % Bound)
[4] = FITC-BAD BH3/BCL-XLΔC interaction pair, competitive FP screen
[5] = FITC-MCL-1 SAHB/MCL-1ΔNΔC interaction pair, competitive FP screen

Chain of BCL-XLΔC (Q07817 1-212 limits assumed, stated change not applied): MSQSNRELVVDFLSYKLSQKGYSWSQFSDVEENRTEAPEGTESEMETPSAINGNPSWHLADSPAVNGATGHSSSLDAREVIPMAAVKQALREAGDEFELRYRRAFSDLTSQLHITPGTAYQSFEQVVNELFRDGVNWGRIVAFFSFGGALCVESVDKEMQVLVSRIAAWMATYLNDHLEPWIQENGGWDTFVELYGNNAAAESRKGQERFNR

Row | SMILES | Spec Values (MCL-1ΔNΔC [1]; [3]) | BCL-XL % Bound (BCL-XLΔC; [4]) [%] | MCL-1% Bound (MCL-1ΔNΔC [2]; [5]) [%] | Spec Values (MCL-1ΔNΔC [1]) | BCL-XL % Bound (BCL-XLΔC) [%] | MCL-1% Bound (MCL-1ΔNΔC [2]) [%]
1 | CC(C)CSC1=NSC2=NC(=O)/C(=C\c3ccc(SCc4ccco4)o3)C(=N)N12 | 45.2 | 82.8 | 37.61 |  |  | 
2 | Fc1ccccc1OCCSc1nnc2c(n1)[nH]c1ccccc12 | 54.35 | 99.56 | 45.2 |  |  | 
3 | O=C1c2ccccc2CCC1Sc1nnc(-c2ccncc2)o1 (stereo not drawn) | 45.54 | 88.38 | 42.84 |  |  | 
4 | CCCCC(=O)Cc1ccco1 | 62.08 | 103 | 40.94 |  |  | 
5 | O=C(/C=C/c1ccco1)Nc1ccc2ccccc2c1 | 48.07 | 112.7 | 64.64 |  |  | 
6 | COc1ccc(-n2nc3cc(C)c(N)c(Br)c3n2)cc1 | 51.41 | 83.97 | 32.56 |  |  | 
7 | COc1ccc2c(c1)CC[C@@H]1C2CC[C@@]2(C)C1CC[C@@H]2NCCCCCCN1C(=O)CCC1=O (stereo partly drawn) [drawing 18] | 49.67 | 106.3 | 56.6 |  |  | 
8 | COc1ccc(/C=c2\s/c(=C\C(=O)c3ccco3)[nH]c2=O)cc1O | 48.14 | 263.7 | 215.6 |  |  | 
9 | Cc1nn2c(S)nnc2nc1O | 168.5 | 102.7 | −65.83 |  |  | 
10 | CCOC(=O)c1c(C)oc2c1c1c(c3ccccc32)OCN(C2CC(C)(C)NC(C)(C)C2)C1 | 50.9 | 85 | 34.11 |  |  | 
11 | Cc1cc2c(C(C)C)c(O)c(O)c(C=O)c2c(O)c1-c1c(C)cc2c(C(C)C)c(O)c(O)c(C=O)c2c1O.[Na+].[Na+] |  |  |  | 97.07 | 101 | 3.955
12 | N#CC1=C(S)NC(=O)C(C#N)C12CCCCC2 (stereo not drawn) | 67.9 | 107.0 | 39.1 |  |  | 
13 | N#C/C(=C\C=C\c1ccco1)C(N)=S | 55.72 | 63.54 | 7.822 |  |  | 
14 | CN1CCN(C(c2ccccn2)c2c(-c3ccccc3)n(O)c3ccccc23)CC1 (stereo not drawn) | 49.28 | 99.83 | 50.55 |  |  | 
15 | CCOc1ccc(S(=O)(=O)/N=C2/C=C(Sc3nc[nH]n3)C(=O)c3ccccc32)cc1 | 101.1 | 103.4 | 2.333 |  |  | 
16 | CC1=NOC(=O)/C1=C/c1ccc(-c2ccc(Cl)cc2)o1 [drawing 53] |  |  |  | 65.98 | 101.5 | 38.47
17 | O=c1oc2ccccc2c2oc3cc(O)c(O)cc3c12 | 72.31 | 84.9 | 12.59 |  |  | 
18 | NNCc1c(Cl)cccc1Cl | 47.77 | 103.5 | 55.76 |  |  | 
19 | Oc1c(Cl)cc(Cl)cc1Sc1cc(Cl)cc(Cl)c1Cl | 73.22 | 100.4 | 27.2 |  |  | 
20 | c1cc(CNc2ccc(N3CCCC3)cc2)ccn1 | 56.89 | 95.63 | 38.73 |  |  | 

Row | SMILES | Spec Values (MCL-1ΔNΔC [1]; [3]) | BCL-XL % Bound (BCL-XLΔC; [4]) [%] | MCL-1% Bound (MCL-1ΔNΔC [2]; [5]) [%] | Spec Values (MCL-1ΔNΔC [1]) | BCL-XL % Bound (BCL-XLΔC) [%] | MCL-1% Bound (MCL-1ΔNΔC [2]) [%]
21 | NC1=C(c2nc3ccccc3s2)CC(=O)N1CCc1ccccc1 | 52.91 | 108.5 | 55.57 |  |  | 
22 | Cc1ccc2n1CCn1cc(-c3ccc(Br)cc3)cc1-2 | 55.6 | 99.37 | 43.77 |  |  | 
23 | CCOc1cccc(/C=N/n2c(S)nnc2-c2ccc(Cl)cc2)c1O | 53.75 | 96.58 | 42.83 |  |  | 
24 | O=C(NN=C1CCCC1)c1ccccc1NS(=O)(=O)c1cccs1 | 63.07 | 92.34 | 29.27 |  |  | 
25 | O=C1NC(=O)/C(=C\c2cccc(C(F)(F)F)c2)S1 | 51.57 | 94.16 | 42.59 |  |  | 
26 | O=C1NC(=O)N(CCC2=CCCCC2)C(=O)/C1=C/c1cnc(-c2ccccc2)nc1 [drawing 98] |  |  |  | 63.4 | 106.9 | 43.51
27 | C/N=c1\scc(-c2c[nH]c3ccccc23)n1C | 83.96 | 114.1 | 30.17 |  |  | 
28 | CC1=C(C#N)C(=O)N(CC(C)O)C(=O)/C1=C/c1ccc(-c2ccc(Cl)cc2)o1 (stereo not drawn) | 74.32 | 89.37 | 15.04 |  |  | 
29 | Cn1c(/N=C/c2c(O)ccc3ccccc23)nc2ccc(Br)cc21 | 60.88 | 31.24 | −29.64 |  |  | 
30 | CCCCn1nnnc1COC(=O)/C(C#N)=C/c1ccc(N(C)C)cc1 | 70.27 | 62.97 | −7.306 |  |  | 
31 | CCN1C(=O)C2Cc3cc(OC)c(OC)cc3CN2C1=S (stereo not drawn) | 51.9 | 91.73 | 39.84 |  |  | 
32 | CC1(C)CC2CC(C)(CN2c2nc(N)c3c(N)nc4c(c3c2C#N)CC(=O)N4C2CCCC2)C1 (stereo not drawn) | 104 | 114.7 | 10.72 |  |  | 
33 | Cc1oc(-c2cccc(C(F)(F)F)c2)cc1C(=O)O | 48.68 | 81.9 | 33.22 |  |  | 
34 | C=C/C(=C\C)N(CC)S(=O)(=O)c1ccc(Oc2ccc(-n3ccnc3)cc2)nc1 | 51.73 | 102.9 | 51.21 |  |  | 
35 | CCSC1=C(C#N)C(=O)NC(c2ccc(N(C)C)cc2)S1 (stereo not drawn) | 49.2 | 79.68 | 30.49 |  |  | 
36 | Oc1c(Cl)cc(Cl)c(Cl)c1Cc1c(O)c(Cl)cc(Cl)c1Cl [drawing 23] |  |  |  | 59.35 | 100.4 | 41.01
37 | Cc1c(Cl)cccc1N1C(=O)CC(N2CCCc3ccccc32)C1=O (stereo not drawn) | 48.92 | 84.74 | 35.82 |  |  | 
38 | CCN1C(=O)C(=Cc2cccn2C)C(=O)N(CC)C1=S |  |  |  | 53.66 | 105.7 | 52.01
39 | CCSC1=C(C#N)C(=O)NC(c2ccc(O)cc2)S1 (stereo not drawn) | 69.65 | 84.82 | 15.17 |  |  | 
40 | CCc1ccc2c(c1)C1(NN=C(c3ccccc3)S1)C(=O)N2 (stereo not drawn) | 55.23 | 99.43 | 44.19 |  |  | 

Row | SMILES | Spec Values (MCL-1ΔNΔC [1]; [3]) | BCL-XL % Bound (BCL-XLΔC; [4]) [%] | MCL-1% Bound (MCL-1ΔNΔC [2]; [5]) [%] | Spec Values (MCL-1ΔNΔC [1]) | BCL-XL % Bound (BCL-XLΔC) [%] | MCL-1% Bound (MCL-1ΔNΔC [2]) [%]
41 | CCCOc1nc2c(c(-c3ccco3)c1C#N)CCCC2 | 52.96 | 83.67 | 30.71 |  |  | 
42 | CCCOC(=O)c1cc(-c2ccc(/C=C3\C(=O)NC(=O)C(C#N)=C3C)o2)ccc1Cl | 97.76 | 87.16 | −10.6 |  |  | 
43 | Cc1ccc(C)n1Cc1ccc(C(=O)O)cc1 | 54.85 | 91.45 | 36.6 |  |  | 
44 | N#C/C(=C/C=C/c1ccc(-c2cc(Cl)ccc2Cl)o1)C(N)=S | 60.96 | 79.39 | 18.44 |  |  | 
45 | O=C(/C=C/c1ccco1)NCc1ccccc1 | 45.66 | 101.8 | 56.1 |  |  | 
46 | Cc1ccc2[nH]c3nc(=S)[nH]nc3c2c1 | 69.2 | 107.9 | 38.65 |  |  | 
47 | O=C1NC(=S)N/C1=C1/C(=O)Nc2ccccc21 | 98.82 | 112.9 | 14.04 |  |  | 
48 | O=C(O)C1CCCN(c2nn3cc(-c4ccc(F)cc4)nc3s2)C1 (stereo not drawn) | 53.98 | 82.02 | 28.04 |  |  | 
49 | CC1CCC[SH](c2cc(O)ccc2O)C1 (stereo not drawn) | 53.57 | 94.72 | 41.16 |  |  | 
50 | C=CCN1C(=O)/C(=C\c2ccc(N3CCOCC3)cc2C)C(=O)NC1=S |  |  |  | 49.65 | 82.66 | 33.01
51 | CCOc1cc(C(Nc2cccnc2)c2ccc3cccnc3c2O)ccc1O (stereo not drawn) [drawing 145] | 108.7 | 108.4 | −0.3 |  |  | 
52 | CC(/N=C/c1cccc(O)c1O)c1ccccc1 (stereo not drawn) | 53.29 | 93.71 | 40.42 |  |  | 
53 | O=C(/C=C/c1ccco1)Nc1cccc(-c2nc3ccccc3o2)c1 | 45.91 | 112 | 66.09 |  |  | 
54 | Oc1cccnc1NC(c1ccc(F)cc1)c1ccc2cccnc2c1O (stereo not drawn) | 71.24 | 113.7 | 42.49 |  |  | 
55 | Cc1nc2c(C(=O)NCc3ccccc3Cl)cnn2c(O)c1Cl | 63.02 | 94.42 | 31.4 |  |  | 
56 | O=C1NC(=S)S/C1=C\c1ccc(-c2ccc(S(=O)(=O)N3CCOCC3)cc2)o1 | 69.33 | 107.9 | 38.57 |  |  | 
57 | CCOC(=O)C1=C(Nc2cccc(Cl)c2)S/C(=C\c2ccco2)C1=O | 63 | 111.2 | 48.22 |  |  | 
58 | Cc1ccccc1OCC1=NN2C(=N)/C(=C\c3ccc(SCc4ccco4)o3)C(=O)N=C2S1 | 54.65 | 73.83 | 19.18 |  |  | 
59 | N#C/C(=C\c1ccc(O)c(O)c1)C(N)=S [drawing 16] |  |  |  | 66.21 | 100.8 | 34.55
60 | CCOC(=O)/C(C#N)=C\c1ccc(N2CCOCC2)cc1 | 96.6 | 78.1 | −18.5 |  |  | 

Reference: US20150315211A1, “SMALL MOLECULES FOR THE MODULATION OF MCL-1 AND METHODS OF MODULATING CELL DEATH, CELL DIVISION, CELL DIFFERENTIATION AND METHODS OF TREATING DISORDERS” (priority 2010, published 2015)
